Test results taken from patent publication US8916599B2, “1H-benz imidazole-5-carboxamides as anti-inflammatory agents” (Orexo AB, priority 2008, dated 2014).

Target: T1, recombinant human mPGES-1 (Homo sapiens, UniProt O14684)
T1 construct: made in house; host or cells: Rosetta E. coli (microsomal/membrane fraction)
T1 sequence (O14684 1-152): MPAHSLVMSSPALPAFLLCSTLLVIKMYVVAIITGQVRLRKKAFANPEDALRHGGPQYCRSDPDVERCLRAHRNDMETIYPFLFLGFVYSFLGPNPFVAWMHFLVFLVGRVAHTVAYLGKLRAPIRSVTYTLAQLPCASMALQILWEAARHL
Assay: mPGES-1 inhibition test (microsomes, PGH2 substrate, HTRF detection of PGE2)
Format: biochemical
Details: for inhibition at 10 µM: inhibition of mPGES-1 at 10 μM; for inhibition at 1 µM: inhibition of mPGES-1 at 1 μM (marked in cell)
Protocol: Microsomes from Rosetta E. coli bacteria expressing recombinant human mPGES-1 is dissolved in 0.1 M KPi pH 7.4 buffer containing 2.5 mM GSH. 50 μl of the enzyme is subsequently dispensed in a 384-well plate. 0.5 μl of the inhibitor dissolved in DMSO at is thereafter added to each well and incubated for 25 minutes at room temperature. Subsequently, 2 μl of PGH2 dissolved in an appropriate solvent is added to each well and after one minute the acidified stop solution containing FeCl2 is added. 4 μl of the total volume is transferred to a separate plate and diluted 750-fold in two separate steps before HTRF detection of PGE2.
The HTRf detection is performed by the use of a commercially available kit from CisBio essentially according to the manufacturer's protocol. Briefly, 10 μl of the diluted sample is transferred to a white 384-well plate. 5 μl of d2 and 5 μl Eu3+-Cryptate labeled anti-PGE2 is added to each well containing samples by the use of a Multidrop. The plate is covered with a plastic self-adhesive film, centrifuged at 1200 rpm for 1 minute and subsequently stored at +4° C. over night.
After over night incubation the fluorescence is measured by the use of an appropriate microplate reader. The fluorescence of europium cryptate, and d2 are measured using the following excitation and emission wavelength, europium cryptate: λmax^ex=307 nm, λmax^em=620 nm and d2: λmax^ex=620 nm, λmax^em=665 nm), respectively. The extent of the specific FRET is measured as a ratio of the emission intensity at 665 nm vs. that at 620 nm. A standard curve using synthetic PGE2 is used to quantify the amount of PGE2 in unknown samples.

| SMILES | inhibition at 10 µM [%] | inhibition at 1 µM [%] |
| --- | --- | --- |
| CC(C)NC(=O)c1cc(Br)c2[nH]c(Nc3c(Cl)cccc3Cl)nc2c1 [Example 570, 7-Bromo-N-isopropyl-2-(2,6-dichlorophenylamino)-1H-benzimidazole-5-carboxamide] | 84 |  |
| O=C(Nc1cc(Cl)ccc1Cl)c1ccc2[nH]c(Nc3c(Cl)cccc3Cl)nc2c1 [Example 281, 2-(2,6-Dichloro-phenylamino)-1H-benzimidazole-5-carboxylic acid (2,5-dichloro-phenyl)-amide] | 100 |  |
| Cc1ccc(NC(=O)c2ccc3c(c2)nc(Nc2c(Cl)cccc2Cl)n3C)nc1 [Example 327, 2-(2,6-Dichloro-phenylamino)-1-methyl-1H-benzimidazole-5-carboxylic acid (5-methyl-pyridin-2-yl)-amide] | 100 |  |
| Cc1ccc(Cl)c(Nc2nc3cc(C(=O)NC4CCCCC4)c(F)cc3[nH]2)c1F [Example 649, 2-(6-Chloro-2-fluoro-3-methyl-phenylamino)-N-cyclohexyl-6-fluoro-1H-benzimidazole-5-carboxamide] |  | 96 |
| O=C(Nc1cc(C(F)(F)F)ccc1Cl)c1ccc2[nH]c(Nc3c(Cl)cccc3Cl)nc2c1 [Example 292, 2-(2,6-Dichloro-phenylamino)-1H-benzimidazole-5-carboxylic acid (2-chloro-5-trifluoromethyl-phenyl)-amide] | 100 |  |
| O=C(Nc1cccc(F)c1)c1ccc2[nH]c(Nc3c(Cl)cccc3Cl)nc2c1 [Example 285, 2-(2,6-Dichloro-phenylamino)-1H-benzimidazole-5-carboxylic acid (3-fluoro-phenyl)-amide] | 100 |  |
| CN(C)c1ccnc(NC(=O)c2ccc3c(c2)nc(Nc2c(Cl)cccc2Cl)n3C)c1 [compound 559] | 85 |  |
| O=C(NCC1CCCO1)c1ccc2[nH]c(Nc3c(Cl)cccc3Cl)nc2c1 (stereo not drawn) [Example 234, 2-(2,6-Dichloro-phenylamino)-1H-benzimidazole-5-carboxylic acid (tetrahydro-furan-2-ylmethyl)-amide] | 77 |  |
| Cc1cccc(NC(=O)c2ccc3[nH]c(Nc4c(Cl)cccc4Cl)nc3c2)c1 [Example 4, 2-(2,6-Dichloro-phenylamino)-1H-benzimidazole-5-carboxylic acid m-tolylamide] | 100 |  |
| O=C(NC1CCC2(CC1)CC2)c1cc2nc(Nc3c(F)cccc3Cl)[nH]c2cc1F [Example 399, 2-(2-Chloro-6-fluorophenylamino)-6-fluoro-N-(spiro[2.5]octan-6-yl)-1H-benzimidazole-5-carboxamide] | 99 |  |
| O=C(N[C@H]1CC[C@H](C(F)(F)F)CC1)c1cc2nc(Nc3c(Cl)cc(F)cc3Cl)[nH]c2cc1OCCF [Example 584, 2-(2,6-Dichloro-4-fluoro-phenylamino)-N-(trans-4-trifluoro-cyclohex-1-yl)-6-(2-fluoroethoxy)-1H-benzimidazole-5-carboxamide] | 96 |  |
| Cn1c(Nc2c(Cl)cccc2Cl)nc2cc(C(=O)Nc3cc(Cl)ccn3)cc(Br)c21 [Example 492, 7-Bromo-N-(4-chloropyridin-2-yl)-2-(2,6-dichlorophenylamino)-1-methyl-1H-benzimidazole-5-carboxamide] | 98 |  |
| Cn1c(Nc2c(F)cccc2Cl)nc2cc(C(=O)Nc3ccc(Br)cc3)ccc21 [Example 381, N-(4-Bromophenyl)-2-(2-chloro-6-fluorophenylamino)-1-methyl-1H-benzimidazole-5-carboxamide] | 100 |  |
| O=C(NC1CCCC(C(F)(F)F)C1)c1ccc2[nH]c(Nc3c(Cl)cccc3Cl)nc2c1 (stereo not drawn) [Example 229, 2-(2,6-Dichloro-phenylamino)-1H-benzimidazole-5-carboxylic acid (3-trifluoromethyl-cyclohexyl)-amide] | 91 |  |
| O=C(Nc1ccccc1)c1ccc2[nH]c(Nc3ccccc3C(F)(F)F)nc2c1 [Example 6, 2-(2-Trifluoromethyl-phenylamino)-1H-benzimidazole-5-carboxylic acid-phenylamide] | 99 |  |
| CCC1CCC(NC(=O)c2cc3nc(Nc4c(F)cccc4Cl)n(C)c3cc2F)C1 (stereo not drawn) [Example 392, 2-(2-Chloro-6-fluorophenylamino)-N-(3-ethylcyclopentyl)-6-fluoro-1-methyl-1H-benzimidazole-5-carboxamide] | 100 |  |
| Cc1cccc(C)c1Nc1nc2cc(C(=O)Nc3ccccc3)ccc2[nH]1 [Example 13, 2-(2,6-Dimethyl-phenylamino)-1H-benzimidazole-5-carboxylic acid-phenylamide] | 100 |  |

| SMILES | inhibition at 10 µM [%] | inhibition at 1 µM [%] |
| --- | --- | --- |
| CCc1ccnc(NC(=O)c2ccc3[nH]c(Nc4c(Cl)cccc4Cl)nc3c2)c1 [Example 120, 2-(2,6-Dichloro-phenylamino)-1H-benzimidazole-5-carboxylic acid (4-ethyl-pyridin-2-yl)-amide] | 96 |  |
| COc1cc2c(cc1C(=O)NC1CCCCC1)nc(Nc1c(Cl)ccc(C)c1F)n2C [Example 651, 2-(6-Chloro-2-fluoro-3-methyl-phenylamino)-6-methoxy-N-cyclohexyl-1-methyl-1H-benzimidazole-5-carboxamide] |  | 100 |
| COc1cccnc1CNC(=O)c1cc2nc(Nc3c(Cl)cccc3Cl)n(C)c2cc1F [Example 529, 2-(2,6-Dichlorophenylamino)-6-fluoro-N-((3-methoxypyridin-2-yl)methyl)-1-methyl-1H-benzimidazole-5-carboxamide] | 93 |  |
| Cc1cccc(C)c1Nc1nc2cc(C(=O)Nc3ccc(Br)cc3)ccc2n1C [compound 318] | 100 |  |
| CCn1c(Nc2c(Cl)cccc2Cl)nc2cc(C(=O)Nc3cc(Cl)ccn3)ccc21 [Example 277, 2-(2,6-Dichloro-phenylamino)-1-ethyl-1H-benzimidazole-5-carboxylic acid (4-chloro-pyridin-2-yl)-amide] | 99 |  |
| O=C(Nc1ccccc1)c1ccc2[nH]c(Nc3ccccc3Cl)nc2c1 [Example 9, 2-(2-Chloro-phenylamino)-1H-benzimidazole-5-carboxylic acid-phenylamide] | 93 |  |
| CCC1CCC(NC(=O)c2cc3nc(Nc4c(Cl)cccc4Cl)n(C)c3cc2F)CC1 (stereo not drawn) [Example 437, 2-(2,6-Dichlorophenylamino)-N-(4-ethylcyclohexyl)-6-fluoro-1-methyl-1H-benzimidazole-5-carboxamide] | 97 |  |
| Cn1c(Nc2c(Cl)cccc2Cl)nc2cc(C(=O)Nc3ccc(Br)cc3)ccc21 [Example 316, 2-(2,6-Dichloro-phenylamino)-1-methyl-1H-benzimidazole-5-carboxylic acid (4-bromo-phenyl)-amide] | 100 |  |
| Cn1c(Nc2c(Cl)cccc2Cl)nc2cc(C(=O)NCc3cccc(C(F)(F)F)n3)ccc21 [Example 247, 2-(2,6-Dichloro-phenylamino)-1-methyl-1H-benzimidazole-5-carboxylic acid (6-trifluoromethyl-pyridin-2-ylmethyl)-amide] | 92 |  |
| Cc1cc(NC(=O)c2ccc3[nH]c(Nc4c(Cl)cccc4Cl)nc3c2)ncc1Cl [Example 89, 2-(2,6-Dichloro-phenylamino)-1H-benzimidazol-5-carboxylic acid (5-chloro-4-methyl-pyridin-2-yl)-amide] | 97 |  |
| COc1ccc(NC(=O)c2ccc3nc(Nc4c(Cl)cccc4Cl)[nH]c3c2)nc1 [Example 195, 2-(2,6-Dichloro-phenylamino)-3H-benzimidazole-5-carboxylic acid (5-methoxy-pyridin-2-yl)-amide] | 92 |  |
| Cn1c(Nc2cc(Cl)ccc2Cl)nc2cc(C(=O)Nc3ccc(Br)cc3)ccc21 [Example 380, N-(4-Bromophenyl)-2-(2,5-dichlorophenylamino)-1-methyl-1H-benzimidazole-5-carboxamide] | 100 |  |
| Cn1c(Nc2c(Cl)cc(F)cc2Cl)nc2cc(C(=O)NCc3ncccc3C(F)(F)F)ccc21 [Example 542, 2-(2,6-Dichloro-4-fluorophenylamino)-1-methyl-N-((3-trifluoromethyl-pyridin-2-yl)methyl)-1H-benzimidazole-5-carboxamide] | 97 |  |
| CC(C)c1ccccc1Nc1nc2cc(C(=O)Nc3ccc(Br)cc3)ccc2n1C [Example 572, N-(4-Bromophenyl)-2-(2-isopropylphenylamino)-1-methyl-1H-benzimidazole-5-carboxamide] | 45 |  |
| Cn1c(Nc2c(Cl)cccc2Cl)nc2cc(C(=O)NCC3CCCC3)ccc21 [Example 243, 2-(2,6-Dichloro-phenylamino)-1-methyl-1H-benzimidazole-5-carboxylic acid cyclopentylmethyl-amide] | 93 |  |
| CCc1cccc(CC)c1Nc1nc2cc(C(=O)Nc3ccc(Br)cc3)ccc2[nH]1 [Example 114, 2-(2,6-Diethyl-phenylamino)-1H-benzimidazole-5-carboxylic acid (4-bromo-phenyl)-amide] | 80 |  |
